# Results: patent US20230405078A1, “DETECTION AND TREATMENT OF INTESTINAL FIBROSIS” (THE REGENTS OF THE UNIVERSITY OF CALIFORNIA, priority 2020, published 2023)
# Where no end group is shown, it is not given here.
# What was measured:
# Type in all cases: in vivo
# Salmonella-infected mice = experiment: Salmonella-mediated cecal fibrosis in mice; settings: Salmonella-infected mice with lentiviral elafin overexpression
# Experimental: Eight-week-old male and female 129Sv/J mice (#000691, Jackson Laboratories) were administered 20 mg streptomycin via oral gavage. Twenty-four hours later, the mice were orally infected with Salmonella typhimurium SL1344 strain 1×10^8 colony-forming units by oral gavage to induce cecal fibrosis.
# Origene or miR205-5p-OFF lentivrus (mm35328) or miR205-5p-OE lentivirus (mm15214) from Applied Biological Materials on day 14. Some infected mice received oral antibiotics mixture in drinking water ad libitum from day 14 to day 21 to suppress intestinal microbiota. […]
# H&E and Masson Trichrome (MT) staining were performed as described previously. Microphotographs were recorded at multiple locations and scored by two investigators blindly. Intestinal injuries were scored (0-12). The severity of intestinal fibrosis was assessed by MT staining and scored (0-3). […]
# Total RNA was isolated by an RNeasy kit (#74104, Qiagen) and reverse transcribed into cDNA by a high-capacity cDNA reverse transcription kit (#4368813, ThermoFisher). […] Relative mRNA/miRNA quantification was performed by comparing test groups and control groups after normalization with endogenous control genes. The fold changes are expressed as 2^ΔΔCt. […]
# (§1) Overall disease activity (ODA) was calculated by % change of histology and fibrosis scores and colonic mRNA expression of fibrosis- and inflammation-related genes. […]
# [1] = test system: HFD-treated elafin-overexpressing mice; experiment: Intraperitoneal IL-1β and IFNγ injection to HFD-treated elafin-overexpressing mice; settings: for effect on elafin-mediated inhibition of fat mass and fasting blood glucose levels / effect on elafin-mediated inhibition of liver steatosis: mouse, in vivo
# From the text: FIG. 33. Circulating immune cells mediated the anti-obesity effects of elafin in HFD-treated male mice. (A) Circulating immune cell mRNA expression in the HFD-treated mice with and without lentiviral elafin overexpression. (B) Splenocyte transplantation to HFD-treated Rag−/− mice. (C) Physiological parameters of HFD-treated Rag−/− recipient mice after splenocyte transplantation. Transplantation of splenocytes from elafin-overexpressing donors caused reduced fat mass, body weight, and food consumption and increased leptin levels in the Rag−/− recipient mice. (D) Mesenteric fat and epididymal fat tissue mRNA expression in HFD- treated mice with and without lentiviral elafin overexpression. (E) Determination of the physiological effects of intraperitoneal IL-1β and IFNγ injection to HFD-treated elafin-expressing mice. IL-1β or IFNγ was injected on the same day as elafin-expressing lentivirus injection. (F) Daily food consumption, (G) serum leptin levels. (H) Change in body weight. (I) Change in fat mass. (J) Fasting blood glucose levels. Each group consists of 8 mice.
# Some groups were injected with IL-1β protein 2.5 μg per mouse (#211-11B Peprotech) or IFNγ protein 5 μg per mouse (#315-05 Peprotech) intraperitoneally to increase circulating IL-1β or IFNγ levels.
# HFD-treated male mice [2] = experiment: Leptin sensitivity test in HFD-treated male mice
# Experimental: FIG. 35. Elafin-dependent serum exosome-mediated inhibition of hyperphagia and hyperglycemia was reversed by miR181b-5p and miR219-5p inhibitors. (A) Serum exosome transplantation to HFD-treated mice. The miRNA inhibitors were injected on the same day as exosome injection. (B) Change in fat mass. (C) No significant change in body weight among all groups over 7 days after miRNA inhibitor and exosome injection. (D) Fasting blood glucose levels 7 days after exosome and miRNA inhibitor injection. (E) Daily food consumption per mouse. (F) Serum leptin levels measured on day seven post-injection. (G, H) Leptin, Cd36, and adiponectin mRNA expression in the mesenteric fat and epididymal fat of HFD-treated mice with exosome and miRNA inhibitor injection. (I) Leptin sensitivity test: The RD/HFD-treated mice were injected with leptin for 3 days after elafin-LV injection. (J, K) Daily food consumption and fasting blood glucose levels at 24 h after the last leptin injection. Each group consists of 8 mice.
# Leptin sensitivity tests were performed by injecting 1 μg/kg leptin intraperitoneally (#450-31, Peprotech) daily for 3 days. At the endpoint of the experiments, mice were fasted for 6 h and tested for fasting blood glucose and cholesterol levels with a drop of tail vein blood using Freestyle Lite blood glucose meter and test strips (Abbott Diabetes Care) and Accutrend Plus meter and test strips (Roche), respectively. The oral glucose tolerance test (OGTT) was performed by feeding D-glucose (1 g/kg) to fasted mice via oral gavage, and the blood glucose level was measured 2 h after oral glucose feeding. Blood glucose and cholesterol levels are presented as mg/dL. Measurements of fasting blood glucose levels, blood total cholesterol levels, food consumption, and fat/lean mass (EchoMRl) were performed as described in our previous report.
# For inhibition of miRNAs, control (Y100199006), miR-181b-5p (YC10201288-FZA), and miR-219-5p (YC10201241-FZA) inhibitors (Qiagen) were dissolved in PBS. […]
# HFD-treated male mice [3] = experiment: Oral and subcutaneous administration of modified elafin to HFD-treated male mice; settings: 14 days
# Experimental: FIG. 36. Subcutaneous and oral administration of modified elafin inhibited hyperphagia and hyperglycemia in HFD-treated male mice. (A) Elafin (1 mg/kg) was injected into RD-treated male mice subcutaneously. Tail-vein blood samples were collected for elafin ELISA. This mouse experiment was intended for the determination of basic pharmacokinetics of elafin, but not the determination of physiology of elafin. (B) HFD-treated mice were treated with either oral gavage of Elafin-Eudragit formulation (10 mg/kg) daily or subcutaneous injection of PEG-elafin (3.25 mg/kg) every 48 h for 14 days. Serum elafin levels. (C) Serum leptin levels. (D) Serum IFNγ and IL-1β levels. (E) Daily food consumption. (F) Change in fat mass. (G) Change in body weight over 14 days. (H) Fasting blood glucose levels. Each group consists of 8 mice.
# Oral and subcutaneous administration of modified elafin to mice. Eight-week-old male c57BL/6J (JAX #000664) mice were fed with HFD for 8 weeks to induce obesity and hyperglycemia, followed by administration of Elafin-Eudragit formulation (10 mg/kg) via oral gavage daily or subcutaneous injection of polyethylene glycol conjugated (PEGylated) elafin (3.25 mg/kg) every 48 h to mice for 14 days. Oral Elafin-Eudragit formulation was made by Dr. Xingguo Cheng at the Southwest Research Institute (SWRI), Texas. Elafin was coated with Eudragit FS3OD polymer. […] Elafin-Eudragit was packaged into microparticles using an SWRI-patented spinning disk atomization technology. This packaging prevented leakage of elafin in acidic, aqueous solution. The oral elafin-Eudragit formulation was dissolved in mildly acidified (pH 5) water containing 0.5% hydroxypropyl methylcellulose (HPMC). PEGylated elafin was made by conjugation to methoxyl-PEG12 (New England Peptide Company). Control groups received either oral Eudragit-HPMC solution or subcutaneous PEG injection.
# TNBS-treated mice = experiment: TNBS-associated colonic fibrosis in mice; settings: TNBS-treated mice
# Experimental: Eight-week-old male and female CD-1 mice (#022, Charles River Laboratories) were injected with 50pL TNBS solution (to induce colonic fibrosis) or 30% ethanol (vehicle) via enema weekly for five weeks. After the last TNBS injection, the mice were held for two additional weeks to develop colonic fibrosis. Some of the mice were injected with 5 μg/mouse of either control (PS100001) or elafin-expressing construct (RC203136) from
# Origene via InvivoJetPEI transfection reagent (201-10G, Polyplus) intracolonically on the 9th day after the last TNBS injection or five days before the end of experiment.
# Some of the mice received either a single intraperitoneal injection of 10 mg/kg anti-tumor necrosis factor-alpha (anti-TNFα) neutralizing antibody (6E0058, BioXCell) or oral antibiotic mixture in drinking water ad libitum from the 9th day after the last TNBS injection to the endpoint of the experiment. The antibiotics mixture contains kanamycin (0.4 mg/mL), gentamicin (0.035 mg/mL), colistin (850 U/mL), metronidazole (0.215 mg/mL), and vancomycin (0.045 mg/mL), which was routinely used by our laboratory for suppressing intestinal microbiota.
# For PAR1/2 activation, some of the mice were injected with DMSO (50pL/mouse), 5 mg/kg PAR1 agonist TRAP-6, or 5 mg/kg PAR2 agonist SLIGKV-NH2 via enema on the 9th, 11th, and 13th days after the last TNBS injection.
# For miRNA inhibition, some of the mice were injected with 5 mg/kg either control inhibitor or miR205-5p power inhibitor (Qiagen) […] via enema on the 9th, 11th, and 13th days after the last TNBS injection.
# For Zeb1 manipulation, some mice received a single intraperitoneal injection (10^7 infectious units/mouse) of control lentivirus (PS100064V), Zeb1-overexpressing lentivirus (MR223095L2V), or Zeb1-shRNA lentivirus (TL513177V) from Origene, Inc. nine days after the last TNBS injection.
# Dr. Xingguo Cheng produced the oral elafin-Eudragit-FS3OD formulation via a material transfer agreement (UCLA MTA2019-00000337) with the Southwest Research Institute (SWRI) in Texas. […] The mice were fed with either control-Eudragit or elafin-Eudragit in mildly acidified (pH 5) water containing 0.5% hydroxypropyl methylcellulose (HPMC) daily via oral gavage during the last five days of the experiment.
# H&E and Masson Trichrome (MT) staining were performed as described previously. Microphotographs were recorded at multiple locations and scored by two investigators blindly. Intestinal injuries were scored (0-12). The severity of intestinal fibrosis was assessed by MT staining and scored (0-3). ZEB1 immunohistochemistry was performed using an anti-ZEB1 antibody (HPA027524, Sigma).
# Total RNA was isolated by an RNeasy kit (#74104, Qiagen) and reverse transcribed into cDNA by a high-capacity cDNA reverse transcription kit (#4368813, ThermoFisher). PCR reactions were run with Taq Universal SYBR Green Supermix (1725120, Bio-Rad) and TaqMan real-time PCR assays (ThermoFisher) in a Bio-Rad CFX384 system. For the determination of miRNA expression, RNA was converted to cDNA using miRCURY LNA RT kit. PCR reactions were run with miRCURY LNA SYBR Green PCR kit and miRCURY LNA PCR assays (Qiagen). Relative mRNA/miRNA quantification was performed by comparing test groups and control groups after normalization with endogenous control genes. The fold changes are expressed as […]. […]
# as §1
compound,measurement,setting,value
"CC[C@H](C)[C@H](NC(=O)[C@H](CC1CCCCC1)NC(=O)c1ccno1)C(=O)NCc1cccc(C(=O)N2CCC(CN)CC2)c1 [GB110, reference compound]",effect on elafin-mediated inhibition of cecal fibrosis / collagen deposition and fibrogenic mRNA expression,Salmonella-infected mice,reversed
IFNγ: IFNγ protein (Peprotech),food consumption in elafin-overexpressing mice,[1]; IL-1β 2.5 μg or IFNγ 5 μg per mouse intraperitoneally,moderately increased
same,effect on elafin-mediated inhibition of fat mass and fasting blood glucose levels,[1],reversed
same,effect on elafin-mediated inhibition of liver steatosis,[1],reversed
same,effect on elafin-mediated decrease of food consumption and fasting blood glucose levels,"HFD-treated male mice [2]; mouse, in vivo",reversed
IL-1β: IL-1β protein (Peprotech),effect on elafin-mediated inhibition of fat mass and fasting blood glucose levels,[1],reversed
same,effect on elafin-mediated inhibition of liver steatosis,[1],reversed
"Leptin: leptin (#450-31, Peprotech) injected intraperitoneally",food consumption in HFD-treated elafin-overexpressing mice,HFD-treated male mice [2]; leptin 1 μg/kg intraperitoneally daily for 3 days,further reduced
same,decrease of fasting blood glucose in HFD-treated elafin-overexpressing mice,HFD-treated male mice [2]; leptin daily for 3 days,not affected
"PEG-Elafin: elafin conjugated to methoxyl-PEG12, for subcutaneous injection (AQEPVKGPVSTKPGSCPIILIRCAMLNPPNRCLKDTDCPGIKKCCEGSCGMACFVPQ; ends and bridges not checked; also: conjugated to methoxyl-PEG12, site not given here; UniProt P19957 61-117, looked up)",circulating IFNγ levels,HFD-treated male mice [3],significantly reduced
same,circulating leptin levels,HFD-treated male mice [3],significantly increased
same,fasting blood glucose levels,HFD-treated male mice [3],significantly reduced
same,fat mass gain,HFD-treated male mice [3],significantly reduced
same,food consumption,HFD-treated male mice [3],significantly reduced
same,liver steatosis,HFD-treated male mice [3],significantly reduced
same,serum elafin levels versus lentiviral elafin overexpression,"HFD-treated male mice [3]; Elafin-Eudragit 10 mg/kg oral daily, PEG-elafin 3.25 mg/kg s.c. every 48 h",comparable
TRAP-6 [PAR1 agonist],colonic injury and fibrosis,TNBS-treated mice,did not affect
